{
  "source": "ChEMBL document CHEMBL5338779",
  "about": "“Discovery, Synthesis, and In Vitro Characterization of 2,3 Derivatives of 4,5,6,7-Tetrahydro-Benzothiophene as Potent Modulators of Retinoic Acid Receptor-Related Orphan Receptor γt” (J Med Chem, 2023)",
  "data": [
    {"molecular_target": "T1, Nuclear receptor ROR-gamma (Homo sapiens, UniProt P51449)", "T1 sequence (P51449 whole entry)": "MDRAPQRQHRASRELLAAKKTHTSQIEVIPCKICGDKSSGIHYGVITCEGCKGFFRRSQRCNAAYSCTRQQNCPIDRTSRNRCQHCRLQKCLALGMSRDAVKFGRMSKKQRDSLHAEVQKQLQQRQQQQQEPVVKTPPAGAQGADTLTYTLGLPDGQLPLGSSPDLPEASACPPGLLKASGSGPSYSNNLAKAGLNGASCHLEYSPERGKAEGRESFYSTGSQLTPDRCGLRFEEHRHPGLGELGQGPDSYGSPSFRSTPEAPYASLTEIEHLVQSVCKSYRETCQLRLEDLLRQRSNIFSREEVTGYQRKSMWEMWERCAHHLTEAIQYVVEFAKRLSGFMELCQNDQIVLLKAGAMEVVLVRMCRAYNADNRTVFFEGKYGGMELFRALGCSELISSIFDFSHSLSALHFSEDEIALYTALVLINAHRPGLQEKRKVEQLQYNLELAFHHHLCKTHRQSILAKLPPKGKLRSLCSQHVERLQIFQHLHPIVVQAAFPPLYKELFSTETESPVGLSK", "test": "biochemical", "assay_type": "cell-based, Insect cell", "settings": "not given", "units": {"IC50": "nM"}, "values": [
      {"molecule": "O=C(CN1CCCCC1)Nc1sc2c(c1C(=O)NCc1ccccc1)CCCC2", "IC50": 2.15},
      {"molecule": "Cc1ccnc(SCC(=O)Nc2sc3c(c2C(=O)NCc2ccccc2)CCCC3)n1", "IC50": 0.69}
    ]},
    {"system": "not listed separately", "test": "Apparent permeability across apical to basolateral side in human Caco-2 cells measured after 90 mins by LC-MS/MS analysis", "settings": "caco-2, 1.5 h", "values": [
      {"molecule": "CC1CCc2c(sc(NC(=O)c3ccccc3F)c2C(=O)N2CCN(C)CC2)C1", "note": "(centres undefined)", "Papp": "28.2 10^-6 cm/s"},
      {"molecule": "CCC1CCc2c(sc(NC(=O)c3ccnn3C)c2C(=O)Nc2ccccc2C)C1", "note": "(centres undefined)", "Papp": "1.8 10^-6 cm/s"},
      {"molecule": "CC1CCN(CC(=O)Nc2sc3c(c2C(=O)NCc2ccccc2)CCCC3)CC1", "Papp": "1.2 10^-6 cm/s"},
      {"molecule": "Cn1ccnc1SCC(=O)Nc1sc2c(c1C(=O)NCc1ccccc1)CCCC2", "Papp": "18 10^-6 cm/s"}
    ]},
    {"molecular_target": "T2, Nuclear receptor ROR-gamma (Homo sapiens) (UniProt P51449)", "T2 sequence (whole entry)": "T1 sequence (P51449 whole entry)", "test": "not given", "settings": "HEK293T, filed as inverse agonist, dose 0.004-1000 nM", "units": {"deltaG": "kcal/mol"}, "values": [
      {"molecule": "O=C(CN1CCCCC1)Nc1sc2c(c1C(=O)NCc1ccccc1)CCCC2", "deltaG": -10.3},
      {"molecule": "Cc1ccnc(SCC(=O)Nc2sc3c(c2C(=O)NCc2ccccc2)CCCC3)n1", "deltaG": -10.2}
    ]},
    {"system": "not listed separately", "test": "physchem", "settings": "citrate buffer, pH 5", "units": {"solubility kinetic at 2 h": "µM"}, "values": [
      {"molecule": "CC1CCc2c(sc(NC(=O)c3ccccc3F)c2C(=O)N2CCN(C)CC2)C1", "note": "(centres undefined)", "solubility kinetic at 2 h": 349},
      {"molecule": "C[C@@H]1CCN(C(=O)c2c(NC(=O)c3cccnc3)sc3c2CCCC3)[C@H](C)C1", "note": "(single isomer, unassigned)", "solubility kinetic at 2 h": 23.7},
      {"molecule": "CCC1CCc2c(sc(NC(=O)c3ccnn3C)c2C(=O)Nc2ccccc2C)C1", "note": "(centres undefined)", "solubility kinetic at 2 h": 8.13},
      {"molecule": "CC1CCN(CC(=O)Nc2sc3c(c2C(=O)NCc2ccccc2)CCCC3)CC1", "solubility kinetic at 2 h": 3.02},
      {"molecule": "Cn1ccnc1SCC(=O)Nc1sc2c(c1C(=O)NCc1ccccc1)CCCC2", "solubility kinetic at 2 h": 13.6}
    ]},
    {"system": "not listed separately", "test": "Lipophilicity, logD of the compound at pH 7.4", "settings": "buffer", "values": [
      {"molecule": "C[C@@H](C#N)NC(=O)c1c(NC(=O)c2cccnc2)sc2c1CCCC2", "logD": 2.85},
      {"molecule": "CN1CCN(C(=O)c2c(NC(=O)c3ccccc3F)sc3c2CCC(C(C)(C)C)C3)CC1", "note": "(centres undefined)", "logD": 5.06},
      {"molecule": "CC1CCc2c(sc(NC(=O)c3ccccc3F)c2C(=O)N2CCN(C)CC2)C1", "note": "(centres undefined)", "logD": 3.59},
      {"molecule": "CCC1CCN(C(=O)c2c(NC(=O)c3cccnc3)sc3c2CCCC3)C1", "note": "(centres undefined)", "logD": 4.05},
      {"molecule": "C[C@@H]1CCN(C(=O)c2c(NC(=O)c3cccnc3)sc3c2CCCC3)[C@H](C)C1", "note": "(single isomer, unassigned)", "logD": 4.45},
      {"molecule": "CCC1CCc2c(sc(NC(=O)c3ccnn3C)c2C(=O)Nc2ccccc2C)C1", "note": "(centres undefined)", "logD": 4.72},
      {"molecule": "CC1(C)CCc2c(sc(NC(=O)c3cnccn3)c2C(=O)N2CCOCC2)C1", "logD": 3},
      {"molecule": "CC1CCN(CC(=O)Nc2sc3c(c2C(=O)NCc2ccccc2)CCCC3)CC1", "logD": 4.57},
      {"molecule": "O=C(CN1CCCCC1)Nc1sc2c(c1C(=O)NCc1ccccc1)CCCC2", "logD": 4.33},
      {"molecule": "Cc1ccnc(SCC(=O)Nc2sc3c(c2C(=O)NCc2ccccc2)CCCC3)n1", "logD": 4.92},
      {"molecule": "Cn1ccnc1SCC(=O)Nc1sc2c(c1C(=O)NCc1ccccc1)CCCC2", "logD": 4.44}
    ]},
    {"system": "not listed separately", "test": "physchem", "settings": "PBS, pH 7.4", "units": {"solubility kinetic at 2 h": "µM"}, "values": [
      {"molecule": "C[C@@H](C#N)NC(=O)c1c(NC(=O)c2cccnc2)sc2c1CCCC2", "solubility kinetic at 2 h": 90.9},
      {"molecule": "CN1CCN(C(=O)c2c(NC(=O)c3ccccc3F)sc3c2CCC(C(C)(C)C)C3)CC1", "note": "(centres undefined)", "solubility kinetic at 2 h": 10.6},
      {"molecule": "CC1CCc2c(sc(NC(=O)c3ccccc3F)c2C(=O)N2CCN(C)CC2)C1", "note": "(centres undefined)", "solubility kinetic at 2 h": 27.7},
      {"molecule": "CCC1CCN(C(=O)c2c(NC(=O)c3cccnc3)sc3c2CCCC3)C1", "note": "(centres undefined)", "solubility kinetic at 2 h": 32.9},
      {"molecule": "C[C@@H]1CCN(C(=O)c2c(NC(=O)c3cccnc3)sc3c2CCCC3)[C@H](C)C1", "note": "(single isomer, unassigned)", "solubility kinetic at 2 h": 27},
      {"molecule": "CCC1CCc2c(sc(NC(=O)c3ccnn3C)c2C(=O)Nc2ccccc2C)C1", "note": "(centres undefined)", "solubility kinetic at 2 h": "≤ 1"},
      {"molecule": "CC1(C)CCc2c(sc(NC(=O)c3cnccn3)c2C(=O)N2CCOCC2)C1", "solubility kinetic at 2 h": 34.8},
      {"molecule": "CC1CCN(CC(=O)Nc2sc3c(c2C(=O)NCc2ccccc2)CCCC3)CC1", "solubility kinetic at 2 h": 12.4},
      {"molecule": "O=C(CN1CCCCC1)Nc1sc2c(c1C(=O)NCc1ccccc1)CCCC2", "solubility kinetic at 2 h": 19.7},
      {"molecule": "Cc1ccnc(SCC(=O)Nc2sc3c(c2C(=O)NCc2ccccc2)CCCC3)n1", "solubility kinetic at 2 h": 3.23},
      {"molecule": "Cn1ccnc1SCC(=O)Nc1sc2c(c1C(=O)NCc1ccccc1)CCCC2", "solubility kinetic at 2 h": 8.05}
    ]},
    {"system": "not listed separately", "test": "physchem", "settings": "fasted state simulated gastric fluid, pH 1.6", "units": {"solubility kinetic at 2 h": "µM"}, "values": [
      {"molecule": "CC1CCc2c(sc(NC(=O)c3ccccc3F)c2C(=O)N2CCN(C)CC2)C1", "note": "(centres undefined)", "solubility kinetic at 2 h": "≥ 400"},
      {"molecule": "C[C@@H]1CCN(C(=O)c2c(NC(=O)c3cccnc3)sc3c2CCCC3)[C@H](C)C1", "note": "(single isomer, unassigned)", "solubility kinetic at 2 h": "≥ 200"},
      {"molecule": "CCC1CCc2c(sc(NC(=O)c3ccnn3C)c2C(=O)Nc2ccccc2C)C1", "note": "(centres undefined)", "solubility kinetic at 2 h": 2.8},
      {"molecule": "CC1CCN(CC(=O)Nc2sc3c(c2C(=O)NCc2ccccc2)CCCC3)CC1", "solubility kinetic at 2 h": 364},
      {"molecule": "Cn1ccnc1SCC(=O)Nc1sc2c(c1C(=O)NCc1ccccc1)CCCC2", "solubility kinetic at 2 h": 267}
    ]},
    {"system": "not listed separately", "test": "Apparent permeability across apical to basolateral side in MDCKII-MDR1 cells at 10 uM incubated for 90 mins by LC-MS/MS analysis", "settings": "dog, mdck-mdr1, 1.5 h", "values": [
      {"molecule": "CC1CCc2c(sc(NC(=O)c3ccccc3F)c2C(=O)N2CCN(C)CC2)C1", "note": "(centres undefined)", "Papp": "28.9 10^-6 cm/s"},
      {"molecule": "CCC1CCc2c(sc(NC(=O)c3ccnn3C)c2C(=O)Nc2ccccc2C)C1", "note": "(centres undefined)", "Papp": "3.2 10^-6 cm/s"},
      {"molecule": "CC1CCN(CC(=O)Nc2sc3c(c2C(=O)NCc2ccccc2)CCCC3)CC1", "Papp": "1.3 10^-6 cm/s"},
      {"molecule": "Cn1ccnc1SCC(=O)Nc1sc2c(c1C(=O)NCc1ccccc1)CCCC2", "Papp": "27.8 10^-6 cm/s"}
    ]}
  ]
}
